Assay results reported in ChEMBL document CHEMBL3228008, “Synthesis and some pharmacological properties of 8-L-methionine-oxytocin” (1979).
Where a SMILES comes first, the peptide text is derived from it. Bridges are numbered along the chain shown (N, C = ends).

How the values were obtained:
Rattus norvegicus [1] = assay: Antidiuretic activity in anesthetized rat; format: functional, Urine
Gallus gallus = assay: Avian vasodepressor activity in conscious chicken; format: functional
[2] = Oxytocic activity in virgin rat uterine horns; format: functional
Rattus norvegicus [3] = assay: Pressor activity in anesthetized rat; format: functional

CC[C@H](C)[C@@H]1NC(=O)[C@H](Cc2ccc(O)cc2)NC(=O)[C@@H](N)CSSC[C@@H](C(=O)N2CCC[C@H]2C(=O)N[C@@H](CCSC)C(=O)NCC(N)=O)NC(=O)[C@H](CC(N)=O)NC(=O)[C@H](CCC(N)=O)NC1=O (H-CYIQNCPMG-NH2; disulfide 1-6) showed an Activity (Rattus norvegicus [1]) of 0.4 U/mg, an Activity (Gallus gallus) of 193 U/mg and an Activity [2] of 200 U/mg. The Activity (Rattus norvegicus [3]) was 27 U/mg.
